Experimental data: patent US20180118718A1, “Substituted Quinoxaline Derivatives” (Selvita S.A., priority 2015, published 2018)
Structures can show the parent of a compound that is named as a salt.

Molecular target: T1, Human recombinant His-tagged PFKFB3 (Homo sapiens, UniProt Q16875)
T1 construct: His; made in house
Test: PFKFB3 IC50 Determination Assay (in vitro kinase assay, modified ADP-Glo system)
Type: biochemical
Details: ATP 20 μM and fructose-6-phosphate 2 μM (Km), 25 nM PFKFB3, 2 h, rt, ADP-Glo luminescence
Protocol: PFKFB3 IC50 Determination Assay
In vitro kinase assay used to determine IC50 values for tested inhibitors is based on a modified ADP-Glo™ system (Promega) and consists of two parts:
1. Kinase reaction—performed in optimized conditions. At this step PFKFB3 phosphorylates its substrate Fructose-6-phosphate using ATP as a source of phosphate to produce Fructose-2,6-bisphosphate and ADP. Reaction is performed at Km values for ATP and substrate using optimized buffer composition and time of the reaction. Human recombinant His-tagged PFKFB3 (PFKFB3 BATCH II SEC) with confirmed activity is produced and purified in-house. 2. Detection of ADP as a product of the reaction using ADP-Glo™ system. This part is conducted by using the commercially available kit ADP-Glo™ Kinase Assay (Promega, cat. No# V9103) according to manufacturer's instruction, modified by 5x dilutions of assay reagents (both ADP-Glo™ Reagent and Kinase Detection Solution).
Test compounds are dissolved in DMSO and then transferred to the V-bottom 96-well plate.
15 μL per well of Mix 1 is transferred to assay wells of 96-well white plate. […] Total reaction volume is 30 μL per well. Samples are tested in duplicates. Final concentration of DMSO in the reaction is 6.7%. Conditions needed for performing PFKFB3 (PFKFB3 BATCH II SEC) in vitro kinase assay are given below:
This protocol is based on Technical Bulletin, ADP-Glo™ Kinase Assay (Promega) and is adapted to 96-well plate containing 30 μL reaction mixture:
30 μL of 5x diluted ADP-Glo™ Reagent is added to each well of 96-well plate containing 30 μL of reaction mixture. The plate is incubated for 90 minutes on a shaker at RT. 60 μL of 5x diluted Kinase Detection Solution is added to each well of 96-well plate containing 60 μL of the solution (ratio of kinase reaction volume to ADP-Glo™ Reagent volume to Kinase Detection Solution volume is maintained at 1:1:2). Plate is incubated for 40 minutes on a shaker at RT, protected from light. Luminescence is measured in the plate reader Synergy 2 (BioTek).
Luminescent readouts for compounds tested in 10 concentrations (routinely from 100 μM to […], […] serial dilutions) in duplicates, as well as for positive control, are first normalized to no-substrate negative control by its subtraction. In the next step, % of normalized positive control is calculated for each data point and plotted against test compound concentration:
% of control percent of positive control normalized to no-substrate negative control Lumcpd luminescence of test compound Lumneg luminescence of no-substrate negative control Lumpos luminescence of positive control
IC50 parameter is determined by the GraphPad Prism 5.0 software [log(inhibitor) vs. response −Variable slope (four parameters)].

T1 sequence (Q16875 whole entry): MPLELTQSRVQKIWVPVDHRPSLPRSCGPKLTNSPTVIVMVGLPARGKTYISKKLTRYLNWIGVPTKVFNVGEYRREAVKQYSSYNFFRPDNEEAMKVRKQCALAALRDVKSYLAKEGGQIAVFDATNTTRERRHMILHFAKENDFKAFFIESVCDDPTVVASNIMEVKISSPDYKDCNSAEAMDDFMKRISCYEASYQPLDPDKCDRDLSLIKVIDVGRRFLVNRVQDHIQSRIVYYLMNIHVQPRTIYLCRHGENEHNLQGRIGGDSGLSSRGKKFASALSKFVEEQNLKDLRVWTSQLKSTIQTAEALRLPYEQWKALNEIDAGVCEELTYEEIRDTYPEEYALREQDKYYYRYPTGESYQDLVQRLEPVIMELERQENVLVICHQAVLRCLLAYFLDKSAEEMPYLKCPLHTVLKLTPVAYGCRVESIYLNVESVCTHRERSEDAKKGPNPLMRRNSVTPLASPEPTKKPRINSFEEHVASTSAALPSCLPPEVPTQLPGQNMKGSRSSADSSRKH

| IC50 | SMILES |
| --- | --- |
| 1 to 1000 nM | Cn1ccc2ccc(-c3cc(N4CCc5ccncc54)cc4nccnc34)cc21 [Example 2, 5-(1-Methyl-1H-indol-6-yl)-7-{1H,2H,3H-pyrrolo[2,3-c]pyridin-1-yl}quinoxaline] |
| 1000 to 10000 nM | COc1ccc(Cl)c(-c2cc(Nc3cnccc3S(C)(=O)=O)cc3nccnc23)c1 [Example 5, 8-(2-Chloro-5-methoxyphenyl)-N-(4-methanesulfonylpyridin-3-yl)quinoxalin-6-amine] |
| 1 to 1000 nM | Cn1ccc2ccc(-c3cc(Nc4cccnc4S(C)(=O)=O)cc4nccnc34)cc21 [Example 6, N-(2-Methanesulfonylpyridin-3-yl)-8-(1-methyl-1H-indol-6-yl)quinoxalin-6-amine] |
| 1 to 1000 nM | Cn1ccc2ccc(-c3cc(Nc4cc(Br)ccc4S(C)(=O)=O)cc4nccnc34)cc21 [Example 10, N-(5-Bromo-2-methanesulfonylphenyl)-8-(1-methyl-1H-indol-6-yl)quinoxalin-6-amine] |
| 1 to 1000 nM | Cn1ccc2ccc(-c3cc(Nc4ccc[nH]c4=O)cc4nccnc34)cc21 [Example 14, 3-{[8-(1-Methyl-1H-indol-6-yl)quinoxalin-6-yl]amino}pyridin-2-ol] |
| 1000 to 10000 nM | Cn1ccc2ccc(-c3cc(Nc4ccccc4S(=O)(=O)N4CCNCC4)cc4nccnc34)cc21 [Example 15, 8-(1-Methyl-1H-indol-6-yl)-N-[2-(piperazine-1-sulfonyl)phenyl]quinoxalin-6-amine trifluoroacetate] |
| 1000 to 10000 nM | Cn1ccc2ccc(-c3cc(Nc4cccnc4N)cc4nccnc34)cc21 [Example 17, 3-N-[8-(1-methyl-1H-indol-6-yl)quinoxalin-6-yl]pyridine-2,3-diamine] |
| 1 to 1000 nM | Cn1ccc2ccc(-c3cc(Nc4ccccc4S(C)(=O)=O)cc4nccnc34)nc21 [Example 21, N-(2-Methanesulfonylphenyl)-8-{1-methyl-1H-pyrrolo[2,3-b]pyridin-6-yl}quinoxalin-6-amine trifluoroacetate] |
| 1 to 1000 nM | Cc1coc2ccc(-c3cc(Nc4cnccc4C#N)cc4nccnc34)cc12 [Example 24, 3-{[8-(3-methyl-1-benzofuran-5-yl)quinoxalin-6-yl]amino}pyridine-4-carbonitrile] |
| 1 to 1000 nM | Cn1ccc2ccc(-c3cc(Nc4cc(C#N)ccc4S(C)(=O)=O)cc4nccnc34)cc21 [Example 25, 4-Methanesulfonyl-3-{[8-(1-methyl-1H-indol-6-yl)quinoxalin-6-yl]amino}benzonitrile] |
| 1 to 1000 nM | Cc1coc2ccc(-c3cc(Nc4cnccc4C(N)=O)cc4nccnc34)cc12 [Example 26, 3-{[8-(3-Methyl-1-benzofuran-5-yl)quinoxalin-6-yl]amino}pyridine-4-carboxamide] |
| 1000 to 10000 nM | Cn1ccc2ccc(-c3cc(Nc4ncncc4S(C)(=O)=O)cc4nccnc34)cc21 [Example 27, N-(5-Methanesulfonylpyrimidin-4-yl)-8-(1-methyl-1H-indol-6-yl)quinoxalin-6-amine] |
| 10000 to 100000 nM | Cn1ccc2cc(-c3cc(Nc4cnccc4C#N)cc4nccnc34)ccc21 [Example 28, 3-{[8-(1-Methyl-1H-indol-5-yl)quinoxalin-6-yl]amino}pyridine-4-carbonitrile] |
| 1000 to 10000 nM | Cn1ccc2cc(-c3cc(Nc4cnccc4C(N)=O)cc4nccnc34)ccc21 [Example 29, 3-{[8-(1-Methyl-1H-indol-5-yl)quinoxalin-6-yl]amino}pyridine-4-carboxamide] |
| 10000 to 100000 nM | Cn1ccc2cc(-c3cc(Nc4cnccc4Cl)cc4nccnc34)ccc21 [Example 30, N-(4-Chloropyridin-3-yl)-8-(1-methyl-1H-indol-5-yl)quinoxalin-6-amine] |
| 10000 to 100000 nM | Cn1cc(-c2ccncc2Nc2cc(-c3ccc4c(ccn4C)c3)c3nccnc3c2)cn1 [Example 31, 8-(1-Methyl-1H-indol-5-yl)-N-[4-(1-methyl-1H-pyrazol-4-yl)pyridin-3-yl]quinoxalin-6-amine] |
| 1000 to 10000 nM | CN1CCN(c2ccncc2Nc2cc(-c3ccc4c(ccn4C)c3)c3nccnc3c2)CC1 [Example 32, 8-(1-Methyl-1H-indol-5-yl)-N-[4-(4-methylpiperazin-1-yl)pyridin-3-yl]quinoxalin-6-amine] |
| 10000 to 100000 nM | Cn1ccc2cc(-c3cc(Nc4cnccc4-c4cncnc4)cc4nccnc34)ccc21 [Example 33, 8-(1-Methyl-1H-indol-5-yl)-N-[4-(pyrimidin-5-yl)pyridin-3-yl]quinoxalin-6-amine] |
| 10000 to 100000 nM | Cn1ccc2cc(-c3cc(N4CCc5ccncc54)cc4nccnc34)ccc21 [Example 34, 5-(1-Methyl-1H-indol-5-yl)-7-{1H,2H,3H-pyrrolo[2,3-c]pyridin-1-yl}quinoxaline] |
| 1 to 1000 nM | Cn1ccc2ccc(-c3cc(Nc4cc([N+](=O)[O-])ccc4S(C)(=O)=O)cc4nccnc34)cc21 [Example 35, N-(2-Methanesulfonyl-5-nitrophenyl)-8-(1-methylindol-6-yl)quinoxalin-6-amine] |
| 1 to 1000 nM | Cn1ccc2ccc(-c3cc(Nc4cc(N)ccc4S(C)(=O)=O)cc4nccnc34)cc21 [Example 36, 6-Methanesulfonyl-N1-[8-(1-methyl-1H-indol-6-yl)quinoxalin-6-yl]benzene-1,3-diamine] |
| 10000 to 100000 nM | Cn1ccc2cc(-c3cc(Nc4cc(CN)ccc4S(C)(=O)=O)cc4nccnc34)ccc21 [Example 38, N-[5-(Aminomethyl)-2-methanesulfonylphenyl]-8-(1-methyl-1H-indol-5-yl)quinoxalin-6-amine] |
| 1 to 1000 nM | Cc1ccc(C)c(-c2cc(Nc3cnccc3S(C)(=O)=O)cc3nccnc23)c1 [Example 39, 8-(2,5-Dimethylphenyl)-N-(4-methanesulfonylpyridin-3-yl)quinoxalin-6-amine] |
| 1 to 1000 nM | CN1CCN(c2ccncc2Nc2cc(-c3ccc4ccn(C)c4c3)c3nccnc3c2)CC1 [Example 40, 8-(1-Methyl-1H-indol-6-yl)-N-[4-(4-methylpiperazin-1-yl)pyridin-3-yl]quinoxalin-6-amine] |
| 1000 to 10000 nM | CC(=O)Nc1ccc(S(C)(=O)=O)c(Nc2cc(-c3ccc4ccn(C)c4c3)c3nccnc3c2)c1 [Example 41, N-(4-Methanesulfonyl-3-{[8-(1-methyl-1H-indol-6-yl)quinoxalin-6-yl]amino}phenyl)acetamide] |
| 1 to 1000 nM | Cn1ccc2ccc(-c3cc(Nc4cc(-n5ccnc5)ccc4S(C)(=O)=O)cc4nccnc34)cc21 [Example 42, N-[5-(1H-Imidazol-1-yl)-2-methanesulfonylphenyl]-8-(1-methyl-1H-indol-6-yl)quinoxalin-6-amine] |
| 1 to 1000 nM | Cn1ccc2ccc(-c3cc(Nc4cc(-c5nn[nH]n5)ccc4S(C)(=O)=O)cc4nccnc34)cc21 [Example 43, N-[2-Methanesulfonyl-5-(2H-1,2,3,4-tetrazol-5-yl)phenyl]-8-(1-methyl-1H-indol-6-yl)quinoxalin-6-amine] |
| 1 to 1000 nM | Cn1ccc2ccc(-c3cc(Nc4c[n+]([O-])ccc4S(C)(=O)=O)cc4nccnc34)cc21 [Example 44, 4-Methanesulfonyl-3-{[8-(1-methyl-1H-indol-6-yl)quinoxalin-6-yl]amino}pyridin-1-ium-1-olate] |
| 1000 to 10000 nM | CN1CCN(c2ccc(S(C)(=O)=O)c(Nc3cc(-c4ccc5ccn(C)c5c4)c4nccnc4c3)c2)CC1 [Example 45, N-[2-Methanesulfonyl-5-(4-methylpiperazin-1-yl)phenyl]-8-(1-methyl-1H-indol-6-yl)quinoxalin-6-amine] |
